Consider 14 compounds from patent US12180207B2 (ARRAY BIOPHARMA INC., priority 2018, dated 2024).

The target in assay [1] is HEK-293 cells transfected with dox-inducible human wild type FGFR1 (Homo sapiens (Human), UniProt P11362). Description: FGFR1 pERK cell assay. The assay is classed as cell-based. Conditions: HEK-293 dox-inducible FGFR1, 1 hour compound, 100 ng/ml FGF-acidic; maximum concentration 5 μM. The essentials:
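In HEK-293 cells with dox-induced human wild-type FGFR1, compounds (1:3 dilutions, top 5 μM final) were applied 1 h at 37°C before 5 min stimulation with 100 ng/ml FGF-acidic. Phospho-ERK1/2 measured by MSD sandwich immunoassay; IC50 from 4-parameter fit of POC versus vehicle and control compound.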

Assay [2] has as its target T1, HEK-293 cells transfected with dox-inducible human wild type FGFR3 (Homo sapiens (Human), UniProt P22607). Description: FGFR3 pERK cell assay. The assay is classed as cell-based. Conditions: HEK-293 dox-inducible FGFR3, 1 hour compound, 100 ng/ml FGF-acidic; maximum concentration 5 μM. The essentials: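 Doxycycline-induced cells preincubated 1 h at 37 °C with compound (1:3 dilutions, top 5 μM final), then stimulated 5 min with 100 ng/ml FGF-acidic. Lysate phospho-ERK1/2 measured by MSD sandwich assay; IC50 at 50 POC from 4-parameter fit, normalised to no-compound and control-compound wells.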

Another assay concerns the target dephosphorylated FGFR2 (Homo sapiens (Human), UniProt P21802). Description: FGFR enzyme binding assay (HTRF tracer displacement), FGFR2. Conditions: 5 nM dephosphorylated FGFR2, average of multiple determinations if made. Put shortly: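 Kinase and tracer were incubated with compound for 60 minutes at 22° C. Tracer displacement was then measured by HTRF, and results were expressed as POC with 1 μM control inhibitor defining full displacement.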
On the technique in general: Time-resolved FRET reads energy transfer from a long-lived donor to a nearby acceptor.

The target in assay [3] is recombinant human FGFR3 (amino acids R397-T806) (Homo sapiens (Human), UniProt P22607). Description: FGFR3 enzyme activity assay (LanthaScreen TR-FRET). The assay is classed as biochemical. To be noted: 25 μM ATP, 10 min incubation at 22° C., average of multiple determinations if made, read-out: FGFR3 Enz FRET IC50. Put shortly: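 GST-HIS6-tagged human FGFR3 (R397-T806) was reacted with 100 nM Alexa Fluor 647-Poly-GT substrate and 25 μM ATP plus compound in HEPES/MgCl2/Triton buffer, pH 7.5, 2% DMSO, for 10 min at 22 °C.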

For assay [4], the target named is T1, HEK-293 cells transfected with dox-inducible human wild type FGFR3. Description: FGFR3 pFGFR cell assay (ELISA). The assay is classed as cell-based. Conditions: HEK-293 dox-inducible FGFR3, 1 hour compound, 100 ng/ml FGF-acidic. The essentials: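 Doxycycline-induced (1 μg/ml) HEK-293 cells expressing wild-type human FGFR3, treated 1 h with compound (1:3 series, top final 5 μM), then stimulated 5 min with 100 ng/ml FGF-acidic. Phospho-FGFR3 measured by ELISA (total FGFR3 capture, phosphotyrosine detection, OD 450 nm); IC50 from 4-parameter fit of POC values.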

What is called IC50 is the concentration at which inhibition is half-maximal.

Sequence of dephosphorylated FGFR2 (P21802 22-821): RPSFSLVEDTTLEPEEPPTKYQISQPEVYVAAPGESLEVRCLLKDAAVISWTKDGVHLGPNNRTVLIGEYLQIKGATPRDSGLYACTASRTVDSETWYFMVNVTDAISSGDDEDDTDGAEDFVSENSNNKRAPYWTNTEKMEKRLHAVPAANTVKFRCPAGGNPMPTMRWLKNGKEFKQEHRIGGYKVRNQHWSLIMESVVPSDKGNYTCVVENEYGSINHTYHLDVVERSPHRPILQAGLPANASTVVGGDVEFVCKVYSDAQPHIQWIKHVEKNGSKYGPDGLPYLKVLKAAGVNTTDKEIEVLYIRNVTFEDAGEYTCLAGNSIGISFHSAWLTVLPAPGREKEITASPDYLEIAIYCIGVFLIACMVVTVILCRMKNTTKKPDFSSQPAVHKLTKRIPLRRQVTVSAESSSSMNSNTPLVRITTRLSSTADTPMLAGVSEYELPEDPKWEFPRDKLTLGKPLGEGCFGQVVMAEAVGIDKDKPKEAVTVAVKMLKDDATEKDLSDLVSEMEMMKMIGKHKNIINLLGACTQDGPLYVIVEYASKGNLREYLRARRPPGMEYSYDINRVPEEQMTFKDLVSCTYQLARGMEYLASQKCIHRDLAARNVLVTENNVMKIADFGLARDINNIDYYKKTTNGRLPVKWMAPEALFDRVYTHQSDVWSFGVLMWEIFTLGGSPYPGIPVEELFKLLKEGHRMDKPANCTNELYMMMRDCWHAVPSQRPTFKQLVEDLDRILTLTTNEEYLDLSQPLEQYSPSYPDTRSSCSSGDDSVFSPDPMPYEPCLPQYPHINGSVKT
Sequence of HEK-293 cells transfected with dox-inducible human wild type FGFR1 (P11362 22-822): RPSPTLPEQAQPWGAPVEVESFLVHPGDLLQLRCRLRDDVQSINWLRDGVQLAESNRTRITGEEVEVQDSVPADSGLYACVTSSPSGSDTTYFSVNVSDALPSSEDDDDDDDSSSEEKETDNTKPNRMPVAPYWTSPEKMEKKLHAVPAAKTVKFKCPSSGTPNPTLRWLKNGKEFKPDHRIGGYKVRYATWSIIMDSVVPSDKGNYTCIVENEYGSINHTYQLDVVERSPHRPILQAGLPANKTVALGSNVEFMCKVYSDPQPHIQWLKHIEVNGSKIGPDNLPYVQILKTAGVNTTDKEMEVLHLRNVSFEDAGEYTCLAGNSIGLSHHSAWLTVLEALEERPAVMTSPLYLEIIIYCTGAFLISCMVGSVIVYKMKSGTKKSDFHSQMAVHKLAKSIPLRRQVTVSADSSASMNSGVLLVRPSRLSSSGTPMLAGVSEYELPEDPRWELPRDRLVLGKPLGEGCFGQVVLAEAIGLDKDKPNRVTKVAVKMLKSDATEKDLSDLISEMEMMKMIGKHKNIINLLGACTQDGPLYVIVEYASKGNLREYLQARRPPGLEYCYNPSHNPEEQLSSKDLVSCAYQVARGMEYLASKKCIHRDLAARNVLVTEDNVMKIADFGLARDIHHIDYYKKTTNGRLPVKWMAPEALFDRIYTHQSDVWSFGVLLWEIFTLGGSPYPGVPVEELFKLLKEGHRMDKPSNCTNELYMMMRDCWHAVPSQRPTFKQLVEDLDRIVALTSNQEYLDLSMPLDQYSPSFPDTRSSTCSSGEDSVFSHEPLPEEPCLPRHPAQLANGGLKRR
T1 sequence (P22607 23-806): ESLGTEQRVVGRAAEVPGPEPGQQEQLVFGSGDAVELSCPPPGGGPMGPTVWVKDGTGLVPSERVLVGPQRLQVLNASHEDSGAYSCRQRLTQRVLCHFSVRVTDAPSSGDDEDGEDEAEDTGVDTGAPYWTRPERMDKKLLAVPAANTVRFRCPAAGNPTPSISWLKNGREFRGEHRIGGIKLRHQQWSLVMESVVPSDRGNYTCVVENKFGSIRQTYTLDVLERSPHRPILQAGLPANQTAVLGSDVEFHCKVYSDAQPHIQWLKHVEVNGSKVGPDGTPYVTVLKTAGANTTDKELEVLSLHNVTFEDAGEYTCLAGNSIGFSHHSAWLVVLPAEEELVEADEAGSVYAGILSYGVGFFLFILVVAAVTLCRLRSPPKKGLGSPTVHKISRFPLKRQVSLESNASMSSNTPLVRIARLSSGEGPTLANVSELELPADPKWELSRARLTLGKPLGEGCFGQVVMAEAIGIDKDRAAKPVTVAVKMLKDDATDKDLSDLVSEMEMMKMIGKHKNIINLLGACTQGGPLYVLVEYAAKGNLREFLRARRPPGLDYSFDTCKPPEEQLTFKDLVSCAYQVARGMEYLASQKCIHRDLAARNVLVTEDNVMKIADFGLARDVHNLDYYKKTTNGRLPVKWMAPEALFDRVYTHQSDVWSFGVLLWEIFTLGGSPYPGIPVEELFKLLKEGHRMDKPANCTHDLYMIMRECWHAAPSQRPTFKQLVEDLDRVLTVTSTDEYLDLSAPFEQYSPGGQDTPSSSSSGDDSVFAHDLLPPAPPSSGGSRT
Sequence of recombinant human FGFR3 (amino acids R397-T806) (P22607 397-806): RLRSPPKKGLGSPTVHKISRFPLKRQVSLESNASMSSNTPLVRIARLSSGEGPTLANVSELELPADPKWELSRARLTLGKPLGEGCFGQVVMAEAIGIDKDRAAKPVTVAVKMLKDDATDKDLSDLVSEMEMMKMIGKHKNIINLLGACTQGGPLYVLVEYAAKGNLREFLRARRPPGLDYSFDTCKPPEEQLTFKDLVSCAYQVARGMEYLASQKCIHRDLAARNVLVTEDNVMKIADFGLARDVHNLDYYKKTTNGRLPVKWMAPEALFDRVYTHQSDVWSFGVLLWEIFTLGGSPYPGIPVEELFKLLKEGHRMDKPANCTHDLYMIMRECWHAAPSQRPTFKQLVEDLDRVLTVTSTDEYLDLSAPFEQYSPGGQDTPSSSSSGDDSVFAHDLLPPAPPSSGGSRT

As for `C=CC(=O)N1CC(C(=O)N2C3CCC2CN(c2ccc(-c4cc(OC)c5c(C#N)cnn5c4)cn2)C3)C1` [Example 50, 6-(6-(8-(1-acryloylazetidine-3-carbonyl)-3,8-diazabicyclo[3.2.1]octan-3-yl)pyridin-3-yl)-4-methoxypyrazolo[1,5-a]pyridine-3-carbonitrile], the IC50 in assay [1] was 0.103 µM; in assay [2] it was 0.025 µM; at dephosphorylated FGFR2, 0.014 µM; in assay [3] it was 0.01 µM.
For `C=CC(=O)N1CC(C)(C(=O)N2CCC(n3ncc(-c4cc(OC)c5c(C#N)cnn5c4)c3C)CC2)C1` [Example 86, 6-(1-(1-(1-acryloyl-3-methylazetidine-3-carbonyl)piperidin-4-yl)-5-methyl-1H-pyrazol-4-yl)-4-methoxypyrazolo[1,5-a]pyridine-3-carbonitrile], in that order: 2.37 µM, 0.159 µM, 0.012 µM and 0.011 µM.
In the case of `C=CC(=O)N1CC(F)(C(=O)N2CCC(n3cc(-c4cc(OC)c5c(C#N)cnn5c4)cn3)CC2)C1` [Example 37, 6-(1-(1-(1-acryloyl-3-fluoroazetidine-3-carbonyl)piperidin-4-yl)-1H-pyrazol-4-yl)-4-methoxypyrazolo[1,5-a]pyridine-3-carbonitrile], the IC50 was found to be 0.059 µM in assay [1]; 0.008 µM in assay [2]; 0.044 µM at dephosphorylated FGFR2; 0.012 µM in assay [4]; 0.004 µM in assay [3].
Consider `C=CC(=O)N1CC(C(=O)N2CC3CCC(C2)N3c2ccc(-c3cc(OC)c4c(C#N)cnn4c3)cn2)C1` [Example 51, 6-(6-(3-(1-acryloylazetidine-3-carbonyl)-3,8-diazabicyclo[3.2.1]octan-8-yl)pyridin-3-yl)-4-methoxypyrazolo[1,5-a]pyridine-3-carbonitrile], for which the IC50 in assay [1] stood at 0.198 µM; in assay [2] it was 0.061 µM; on dephosphorylated FGFR2, 0.038 µM; in assay [3] it was 0.022 µM.
On to `C=CC(=O)N1CC(CN2CCC(n3ncc(-c4cc(OC)c5c(C#N)cnn5c4)c3C)CC2)(OC)C1` [Example 91, 6-(1-(1-((1-acryloyl-3-methoxyazetidin-3-yl)methyl)piperidin-4-yl)-5-methyl-1H-pyrazol-4-yl)-4-methoxypyrazolo[1,5-a]pyridine-3-carbonitrile], for which the IC50 in assay [1] was determined as 0.341 µM; in assay [2], 0.015 µM; on dephosphorylated FGFR2, 0.019 µM; in assay [3] it was 0.019 µM.
`C=CC(=O)N1CC(CN2CCC(n3ncc(-c4cc(OC)c5c(C#N)cnn5c4)c3C)CC2)C1` [Example 89, 6-(1-(1-((1-acryloylazetidin-3-yl)methyl)piperidin-4-yl)-5-methyl-1H-pyrazol-4-yl)-4-methoxypyrazolo[1,5-a]pyridine-3-carbonitrile]: the IC50 in assay [1] came to 0.541 µM; in assay [2] it was 0.022 µM; at dephosphorylated FGFR2 it was 0.053 µM; in assay [3], 0.015 µM.
Regarding `C=CC(=O)N1CC(C)(CN2CCC(n3ncc(-c4cc(OC)c5c(C#N)cnn5c4)c3C)CC2)C1` [Example 90, 6-(1-(1-((1-acryloyl-3-methylazetidin-3-yl)methyl)piperidin-4-yl)-5-methyl-1H-pyrazol-4-yl)-4-methoxypyrazolo[1,5-a]pyridine-3-carbonitrile], the IC50 is 2.24 µM in assay [1], 0.043 µM in assay [2], 0.054 µM at dephosphorylated FGFR2 and 0.021 µM in assay [3].
For `C=CC(=O)N1CC(OC)(C(=O)N2CCC(n3ncc(-c4cc(OC)c5c(C#N)cnn5c4)c3C)CC2)C1` [Example 88, 6-(1-(1-(1-acryloyl-3-methoxyazetidine-3-carbonyl)piperidin-4-yl)-5-methyl-1H-pyrazol-4-yl)-4-methoxypyrazolo[1,5-a]pyridine-3-carbonitrile], the IC50 in assay [1] came out at 0.605 µM; in assay [2], 0.034 µM; on dephosphorylated FGFR2, 0.012 µM; in assay [3], 0.029 µM.
Regarding `C=CC(=O)N1CC(C(=O)N2C3CC2CN(c2ccc(-c4cc(OC)c5c(C#N)cnn5c4)cn2)C3)C1` [Example 52, 6-(6-(6-(1-acryloylazetidine-3-carbonyl)-3,6-diazabicyclo[3.1.1]heptan-3-yl)pyridin-3-yl)-4-methoxypyrazolo[1,5-a]pyridine-3-carbonitrile], the IC50 in assay [1] turned out to be 0.759 µM; in assay [2], 0.262 µM; on dephosphorylated FGFR2 it was 0.032 µM; in assay [3], 0.034 µM.
For `C=CC(=O)N1CC(C(=O)N2CCC(n3ncc(-c4cc(OC)c5c(C#N)cnn5c4)c3C)CC2)C1(C)C` (stereo not drawn) [Example 87, 6-(1-(1-(1-acryloyl-2,2-dimethylazetidine-3-carbonyl)piperidin-4-yl)-5-methyl-1H-pyrazol-4-yl)-4-methoxypyrazolo[1,5-a]pyridine-3-carbonitrile], in that order: 2.35 µM, 0.52 µM, 0.051 µM and 0.032 µM.
Consider `C=CC(=O)N1CC(F)(C(=O)N2CCC(n3ncc(-c4cc(OC)c5c(C#N)cnn5c4)c3C)CC2)C1` [Example 85, 6-(1-(1-(1-acryloyl-3-fluoroazetidine-3-carbonyl)piperidin-4-yl)-5-methyl-1H-pyrazol-4-yl)-4-methoxypyrazolo[1,5-a]pyridine-3-carbonitrile], for which the IC50 in assay [1] stood at 0.462 µM; in assay [2], 0.019 µM; on dephosphorylated FGFR2 it was 0.036 µM; in assay [4], 0.016 µM; in assay [3], 0.007 µM.
In the case of `C=CC(=O)N1CC(C(=O)N2CCC(n3ncc(-c4cc(OC)c5c(C#N)cnn5c4)c3C)CC2)C1` [Example 84, 6-(1-(1-(1-acryloylazetidine-3-carbonyl)piperidin-4-yl)-5-methyl-1H-pyrazol-4-yl)-4-methoxypyrazolo[1,5-a]pyridine-3-carbonitrile], the IC50 was determined as 2.53 µM in assay [1]; 0.108 µM in assay [2]; 0.021 µM at dephosphorylated FGFR2; 0.077 µM in assay [4]; 0.006 µM in assay [3].
For the compound `C=CC(=O)N1CC[C@@H](C(=O)N2CCC(n3ncc(-c4cc(OC)c5c(C#N)cnn5c4)c3C)CC2)C1` [Example 83, (R)-6-(1-(1-(1-acryloylpyrrolidine-3-carbonyl)piperidin-4-yl)-5-methyl-1H-pyrazol-4-yl)-4-methoxypyrazolo[1,5-a]pyridine-3-carbonitrile], the IC50 in assay [1] is at least 5 µM; in assay [2], 0.549 µM; on dephosphorylated FGFR2, 0.017 µM; in assay [4], 0.546 µM; in assay [3] it was 0.007 µM.
As for `C=CC(=O)N1CCC(C#N)(C(=O)N2CCC(n3cc(-c4cc(OC)c5c(C#N)cnn5c4)cn3)CC2)C1` (stereo not drawn) [Example 31, 6-(1-(1-(1-acryloyl-3-cyanopyrrolidine-3-carbonyl)piperidin-4-yl)-1H-pyrazol-4-yl)-4-methoxypyrazolo[1,5-a]pyridine-3-carbonitrile], the IC50 in assay [1] stood at 0.247 µM; in assay [2], 0.026 µM; in assay [4], 0.015 µM; in assay [3] it was 0.002 µM.
